Reference: patent publication US20030018079A1, “Treatment” (priority 2000, published 2003)

Assay: Studies 004 and 005 together: timolol run-in and comparison of patient groups
Type: in vivo, patients
Settings: timolol run-in period before baseline
Description: A sub-population of 76 individuals in a population of total 854 patients enrolled into two different studies of German patients (004) and US patients (005) were identified at baseline as having some degree of abnormality to the optic nerve head together with a glaucomatous visual field defect and were treated with a fixed combination (FC) of latanoprost and timolol. Both studies were based on a randomized double-masked parallel group design. In both studies, a fixed combination (FC) of latanoprost and timolol was administered to a group of patients with optic nerve head damage and visual field loss (i.e. glaucomatous field defects) and to groups of patients without any such detected damages, but with an elevation of IOP. Patient demography and baseline characteristics in patients with and without optic nerve head damages and glaucomatous field defects are shown in Table 2.1.
The patients is the studies received one drop in the morning of a fixed combination of latanoprost (50 μg/ml) and timolol (5 mg/ml) during the study duration of 26 weeks. The exact composition of fixed combination is disclosed in Table 1. At baseline, IOP assessments were made at 08:00, 10:00, and 16:00. Measurements at the same time-points were subsequently made at scheduled clinic visits at Week 2, Week 13, and Week 26. Additionally, an 08:00 measurement was also obtained at Week 6. […]

Structure (SMILES): CC(C)(C)NC[C@H](O)COc1nsnc1N1CCOCC1 [timolol]
- decrease in IOP: approximately 5 mm Hg
